Assay [1] concerns the target T1, human orexin-2 receptor (Homo sapiens (Human), UniProt O43614). Briefly: radioligand binding assay, orexin-2 receptor (membranes from CHO cells). The following applies: CHO cell membranes, read-out: hOX2 hKi. The procedure:
(§1) The utility of the compounds in accordance with the present invention as orexin receptor OX1R and/or OX2R antagonists may be readily determined without undue experimentation by methodology well known in the art, including the “FLIPR Ca^2+ Flux Assay” (Okumura et al., Biochem. Biophys. Res. Comm. 280:976-981, 2001). In a typical experiment the OX1 and OX2 receptor antagonistic activity of the compounds of the present invention was determined in accordance with the following experimental method. For intracellular calcium measurements, Chinese hamster ovary (CHO) cells expressing the rat orexin-1 receptor or the human orexin-2 receptor, are grown in Iscove's modified DMEM containing 2 mM L-glutamine, […], 1% hypoxanthine-thymidine supplement, 100 U/ml penicillin, 100 ug/ml streptomycin and 10% heat-inactivated fetal calf serum (FCS). The cells are seeded at 20,000 cells/well into Becton-Dickinson black 384-well clear bottom sterile plates coated with poly-D-lysine. All reagents were from GIBCO-Invitrogen Corp. The seeded plates are incubated overnight at 37° C. and 5% CO2. Ala-6,12 human orexin-A as the agonist is prepared as a 1 mM stock solution in 1% bovine serum albumin (BSA) and diluted in assay buffer (HBSS containing 20 mM HEPES, 0.1% BSA and 2.5 mM probenecid, pH7.4) for use in the assay at a final concentration of 70 pM. Test compounds are prepared as 10 mM stock solution in DMSO, then diluted in 384-well plates, first in DMSO, then assay buffer. On the day of the assay, cells are washed 3 times with 100 ul assay buffer and then incubated for 60 min (37° C., 5% CO2) in 60 ul assay buffer containing 1 uM Fluo-4AM ester, 0.02% pluronic acid, and 1% BSA. The dye loading solution is then aspirated and cells are washed 3 times with 100 ul assay buffer. 30 ul of that same buffer is left in each well. Within the Fluorescent Imaging Plate Reader (FLIPR, Molecular Devices), test compounds are added to the plate in a volume of 25 ul, incubated for 5 min and finally 25 ul of agonist is added. Fluorescence is measured for each well at 1 second intervals for 5 minutes and the height of each fluorescence peak is compared to the height of the fluorescence peak induced by 70 pM Ala-6,12 orexin-A with buffer in place of antagonist. […] Alternatively, compound potency can be assessed by a radioligand binding assay (described in Bergman et. al. Bioorg. Med. Chem. Lett. 2008, 18, 1425-1430) in which the inhibition constant (Ki) is determined in membranes prepared from CHO cells expressing either the OX1 or OX2 receptor. The intrinsic orexin receptor antagonist activity of a compound which may be used in the present invention may be determined by these assays.

In assay [2] the target is T1, human orexin-2 receptor. Briefly: FLIPR Ca2+ Flux Assay, CHO cells expressing human orexin-2 receptor. The assay is classed as cell-based. The following applies: 70 pM Ala-6,12 orexin-A agonist, read-out: hOX2R FLIPR IC50. As to the method:
as §1
(In general: A change in cytosolic calcium serves as a functional read-out for many receptors and channels.)

The next assay deals with rat orexin-1 receptor (Rattus norvegicus (Rat), UniProt P56718). The assay is described as follows: FLIPR Ca2+ Flux Assay, CHO cells expressing rat orexin-1 receptor.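 Also: concentration giving 50% inhibition of the agonist-induced calcium response.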 Type of assay: cell-based. The following applies: 70 pM Ala-6,12 orexin-A agonist, read-out: hOX1R FLIPR IC50. As to the method: as §1
Sequence of rat orexin-1 receptor (P56718 whole entry): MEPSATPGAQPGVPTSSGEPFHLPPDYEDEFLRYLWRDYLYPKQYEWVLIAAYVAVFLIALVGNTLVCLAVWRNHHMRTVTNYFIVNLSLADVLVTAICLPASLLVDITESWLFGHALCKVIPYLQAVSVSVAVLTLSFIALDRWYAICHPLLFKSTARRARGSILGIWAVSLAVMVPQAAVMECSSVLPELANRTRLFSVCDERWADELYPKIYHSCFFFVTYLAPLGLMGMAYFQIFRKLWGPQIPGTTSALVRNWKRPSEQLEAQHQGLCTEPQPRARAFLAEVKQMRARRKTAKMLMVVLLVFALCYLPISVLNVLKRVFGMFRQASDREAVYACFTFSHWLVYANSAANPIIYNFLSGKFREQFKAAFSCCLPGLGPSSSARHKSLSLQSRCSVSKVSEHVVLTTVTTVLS
The next assay concerns the target OX1 receptor (hOX1) (Homo sapiens, UniProt O43613). The assay is described as follows: radioligand binding assay, orexin-1 receptor (membranes from CHO cells). To be noted: CHO cell membranes, read-out: hOX1 hKi. As to the method:
In a typical experiment the OX1 and OX2 receptor antagonistic activity of the compounds of the present invention was determined in accordance with the following experimental method. For intracellular calcium measurements, Chinese hamster ovary (CHO) cells expressing the rat orexin-1 receptor or the human orexin-2 receptor, are grown in Iscove's modified DMEM containing 2 mM L-glutamine, […], 1% hypoxanthine-thymidine supplement, 100 U/ml penicillin, 100 ug/ml streptomycin and 10% heat-inactivated fetal calf serum (FCS). The cells are seeded at 20,000 cells/well into Becton-Dickinson black 384-well clear bottom sterile plates coated with poly-D-lysine. All reagents were from GIBCO-Invitrogen Corp. The seeded plates are incubated overnight at 37° C. and 5% CO2. Ala-6,12 human orexin-A as the agonist is prepared as a 1 mM stock solution in 1% bovine serum albumin (BSA) and diluted in assay buffer (HBSS containing 20 mM HEPES, 0.1% BSA and 2.5 mM probenecid, pH7.4) for use in the assay at a final concentration of 70 pM. Test compounds are prepared as 10 mM stock solution in DMSO, then diluted in 384-well plates, first in DMSO, then assay buffer. On the day of the assay, cells are washed 3 times with 100 ul assay buffer and then incubated for 60 min (37° C., 5% CO2) in 60 ul assay buffer containing 1 uM Fluo-4AM ester, 0.02% pluronic acid, and 1% BSA. The dye loading solution is then aspirated and cells are washed 3 times with 100 ul assay buffer. 30 ul of that same buffer is left in each well. Within the Fluorescent Imaging Plate Reader (FLIPR, Molecular Devices), test compounds are added to the plate in a volume of 25 ul, incubated for 5 min and finally 25 ul of agonist is added. Fluorescence is measured for each well at 1 second intervals for 5 minutes and the height of each fluorescence peak is compared to the height of the fluorescence peak induced by 70 pM Ala-6,12 orexin-A with buffer in place of antagonist. […] Alternatively, compound potency can be assessed by a radioligand binding assay (described in Bergman et. al. Bioorg. Med. Chem. Lett. 2008, 18, 1425-1430) in which the inhibition constant (Ki) is determined in membranes prepared from CHO cells expressing either the OX1 or OX2 receptor. The intrinsic orexin receptor antagonist activity of a compound which may be used in the present invention may be determined by these assays.

Molecules are shown by their SMILES. A value given as a limit tells only on which side of the number the result lay.

T1 sequence (O43614 whole entry): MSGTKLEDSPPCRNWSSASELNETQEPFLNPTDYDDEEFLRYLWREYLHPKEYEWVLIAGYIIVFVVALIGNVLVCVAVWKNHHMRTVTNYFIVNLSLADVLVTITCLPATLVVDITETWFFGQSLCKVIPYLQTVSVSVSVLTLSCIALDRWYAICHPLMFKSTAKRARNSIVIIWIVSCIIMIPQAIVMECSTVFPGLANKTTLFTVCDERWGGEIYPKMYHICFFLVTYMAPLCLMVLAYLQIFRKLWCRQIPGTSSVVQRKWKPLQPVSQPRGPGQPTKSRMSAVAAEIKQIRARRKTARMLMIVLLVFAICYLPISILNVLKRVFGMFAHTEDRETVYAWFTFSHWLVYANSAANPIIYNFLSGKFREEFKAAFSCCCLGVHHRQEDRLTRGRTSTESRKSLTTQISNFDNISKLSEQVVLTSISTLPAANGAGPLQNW

By IC50 is commonly meant the concentration that inhibits the measured activity by half. `C[C@@H]1CC[C@@H](Oc2cc(C#N)ccn2)CN1C(=O)c1ccc(Cl)cc1-n1nccn1` [Example 29, 2-{[(3R,6R)-1-{[4-chloro-2-(2H-1,2,3-triazol-2-yl)phenyl]carbonyl}-6-methylpiperidin-3-yl]oxy}pyridine-4-carbonitrile]: the Ki was 1.3 nM on human orexin-2 receptor [1] and 1100 nM on OX1 receptor (hOX1). The IC50 on human orexin-2 receptor [2] was 12 nM; on rat orexin-1 receptor, 3.4 µM.

On to `C[C@@H]1CC[C@@H](Oc2cc(C#N)ccn2)CN1C(=O)c1ccsc1-c1ncccn1` [Example 32, 2-({(3R,6R)-6-methyl-1-[(2-pyrimidin-2-ylthiophen-3-yl)carbonyl]piperidin-3-yl}oxy)pyridine-4-carbonitrile], for which, on human orexin-2 receptor [1], the Ki was 2.1 nM. Besides, the IC50 at human orexin-2 receptor [2] was found to be 44 nM; on rat orexin-1 receptor it was 6.74 µM.

In the case of `Cc1cccc(C(=O)N2C[C@H](Oc3cc(C#N)ccn3)CC[C@H]2C)c1-n1nccn1` [Example 5, 2-{[(3R,6R)-6-methyl-1-{[3-methyl-2-(2H-1,2,3-triazol-2-yl)phenyl]carbonyl}piperidin-3-yl]oxy}pyridine-4-carbonitrile], the Ki on human orexin-2 receptor [1] was determined as 3 nM; at OX1 receptor (hOX1) it was 669 nM. The IC50 on human orexin-2 receptor [2] amounted to 17 nM; on rat orexin-1 receptor, 2.33 µM.

On to `C[C@@H]1CC[C@@H](Oc2cc(C#N)ccn2)CN1C(=O)c1ccsc1-n1nccn1` [Example 10, 2-{[(3R,6R)-6-methyl-1-{[2-(2H-1,2,3-triazol-2-yl)thiophen-3-yl]carbonyl}piperidin-3-yl]oxy}pyridine-4-carbonitrile], for which the Ki was 5.9 nM at human orexin-2 receptor [1] and 3570 nM on OX1 receptor (hOX1). For the same molecule, the 50% inhibitory concentration (IC50) on human orexin-2 receptor [2] is 29 nM; on rat orexin-1 receptor it was over 10 µM.

As to `C[C@@H]1CC[C@@H](Oc2cc(C#N)ccn2)CN1C(=O)c1cc(F)ccc1-c1ncccn1` [Example 35, 2-({(3R,6R)-1-[(5-fluoro-2-pyrimidin-2-ylphenyl)carbonyl]-6-methylpiperidin-3-yl}oxy)pyridine-4-carbonitrile], the Ki on human orexin-2 receptor [1] came to 1 nM; on OX1 receptor (hOX1), 658 nM. For the same molecule, the IC50 at human orexin-2 receptor [2] is 31 nM; at rat orexin-1 receptor, 8.04 µM.

In the case of `Cc1cccc(-n2nccn2)c1C(=O)N1C[C@H](Oc2cc(C#N)ccn2)CC[C@H]1C` [Example 4, 2-{[(3R,6R)-6-methyl-1-{[2-methyl-6-(2H-1,2,3-triazol-2-yl)phenyl]carbonyl}piperidin-3-yl]oxy}pyridine-4-carbonitrile], the Ki at human orexin-2 receptor [1] is 2.3 nM; on OX1 receptor (hOX1), 932 nM. The IC50 at human orexin-2 receptor [2] is 29 nM; at rat orexin-1 receptor it was over 10 µM.

As to `C[C@@H]1CC[C@@H](Oc2cc(C#N)ccn2)CN1C(=O)c1ccc(Cl)cc1-n1nccn1` [Example 7, 2-{[(3R,6R)-1-{[4-chloro-2-(2H-1,2,3-triazol-2-yl)phenyl]carbonyl}-6-methylpiperidin-3-yl]oxy}pyridine-4-carbonitrile], the figures for the Ki at human orexin-2 receptor [1] and at OX1 receptor (hOX1) were 1.1 nM and 997 nM, respectively. Moreover, the IC50 at human orexin-2 receptor [2] turned out to be 17 nM; on rat orexin-1 receptor, 3.84 µM.

Regarding `C[C@@H]1CC[C@@H](Oc2cc(C#N)ccn2)CN1C(=O)c1c(F)cccc1-c1ncccn1` [Example 36, 2-({(3R,6R)-1-[(2-fluoro-6-pyimidin-2-ylphenyl)carbonl]-6-methylpiperidin-3-yl}oxy)pyridine-4-carbonitrile], the Ki at human orexin-2 receptor [1] stood at 2.1 nM; at OX1 receptor (hOX1) it was 930 nM. Besides, the IC50 at human orexin-2 receptor [2] is 47 nM; on rat orexin-1 receptor, over 10 µM.

`COc1ccc(C(=O)N2C[C@H](Oc3cc(C#N)ccn3)CC[C@H]2C)c(-n2nccn2)n1` [Example 17, 2-{[(3R,6R)-1-{[6-methoxy-2-(2H-1,2,3-triazol-2-yl)pyridin-3-yl]carbonyl}-6-methylpiperidin-3-yl]oxy}pyridine-4-carbonitrile]: the results for the Ki on human orexin-2 receptor [1] and on OX1 receptor (hOX1) were 15 nM and 5640 nM, respectively. Further, the IC50 on human orexin-2 receptor [2] is 82 nM; on rat orexin-1 receptor, over 10 µM.

Regarding `C[C@@H]1CC[C@@H](Oc2cc(C#N)ccn2)CN1C(=O)c1ccc(F)cc1-c1ncccn1` [Example 34, 2-({(3R,6R)-1-[(4-fluoro-2-pyrimidin-2-ylphenyl)carbonyl]-6-methylpiperidin-3-yl}oxy)pyridine-4-carbonitrile], the Ki at human orexin-2 receptor [1] is 3.5 nM; on OX1 receptor (hOX1) it was 868 nM. The values for the IC50 on human orexin-2 receptor [2] and at rat orexin-1 receptor were 48 nM and over 10 µM, respectively.

In the case of `C[C@@H]1CC[C@@H](Oc2cc(C#N)ccn2)CN1C(=O)c1cccc(F)c1-n1nccn1` [Example 6, 2-{[(3R,6R)-1-{[3-fluoro-2-(2H-1,2,3-triazol-2-yl)phenyl]carbonyl}-6-methylpiperidin-3-yl]oxy}pyridine-4-carbonitrile], the Ki at human orexin-2 receptor [1] stood at 5.5 nM; at OX1 receptor (hOX1) it was 1900 nM. For the same molecule, the IC50 at human orexin-2 receptor [2] was 18 nM; at rat orexin-1 receptor, over 10 µM.

Consider `COc1ccc(C(=O)N2C[C@H](Oc3cc(C#N)ccn3)CC[C@H]2C)c(C2CC2)n1` [Example 20, 2-({(3R,6R)-1-[(2-cyclopropyl-6-methoxypyridin-3-yl)carbonyl]-6-methylpiperidin-3-yl}oxy)pyridine-4-carbonitrile], for which the Ki at human orexin-2 receptor [1] was found to be 11.5 nM; at OX1 receptor (hOX1) it was 12600 nM. For the same molecule, the IC50 at human orexin-2 receptor [2] was 67 nM; at rat orexin-1 receptor, over 10 µM.

With `C[C@@H]1CC[C@@H](Oc2cc(C#N)ccn2)CN1C(=O)c1c(F)cccc1-n1nccn1` [Example 22, 2-{[(3R,6R)-1-{[2-fluoro-6-(2H-1,2,3-triazol-2-yl)phenyl]carbonyl}-6-methylpipeidin-3-yl]oxy}pyridine-4-carbonitrile], the Ki on human orexin-2 receptor [1] amounted to 3.4 nM; on OX1 receptor (hOX1), 1790 nM. In addition, the IC50 on human orexin-2 receptor [2] was 23 nM; on rat orexin-1 receptor it was 5.75 µM.

As for `C[C@@H]1CC[C@@H](Oc2cc(C#N)ccn2)CN1C(=O)c1ccccc1-n1ncnn1` [Example 30, 2-{[(3R,6R)-6-methyl-1-{[2-(2H-tetrazol-2-yl)phenyl]carbonyl}piperidin-3-yl]oxy}pyridine-4-carbonitrile], the IC50 at human orexin-2 receptor [2] was 110 nM; at rat orexin-1 receptor, under 10 µM.

For the molecule `C[C@@H]1CC[C@@H](Oc2cc(C#N)ccn2)CN1C(=O)c1cn(C)nc1-n1nccn1` [Example 12, 2-{[(3R,6R)-6-methyl-1-{[1-methyl-3-(2H-1,2,3-triazol-2-yl)-1H-pyrazol-4-yl]carbonyl}piperidin-3-yl]oxy}pyridine-4-carbonitrile], the Ki on human orexin-2 receptor [1] was found to be 151 nM; at OX1 receptor (hOX1) it was 5640 nM.

The record behind these values is US20130102619A1, “2-PYRIDYLOXY-4-NITRILE OREXIN RECEPTOR ANTAGONISTS” (priority 2011, published 2013).
